# “And” between values parts separate entries of the source, which are not always exact repeats. Equal values may be shown once.
# How the values were obtained:
# Carbonic anhydrase 2 [1] = target: T1, Carbonic anhydrase 2 (Homo sapiens, UniProt P00918)
# Raji = assay: cells; settings: Homo sapiens, 96 h
# [2] = target: T2, Sodium/hydrogen exchanger 1 (Homo sapiens, UniProt P19634)
# Carbonic anhydrase 2 [3] = target: T1, Carbonic anhydrase 2; remark: listed apart in the source
# [4] = target: T2, Sodium/hydrogen exchanger 1; remark: listed apart in the source
# HepG2 = assay: cells; settings: Homo sapiens
# MCF7 [5] = assay: cells; settings: Homo sapiens
# Carbonic anhydrase 2 [6] = target: T1, Carbonic anhydrase 2; remark: listed apart in the source
# A549 = assay: cells; settings: Homo sapiens
# [7] = target: T3, Monocarboxylate transporter 1 (Rattus norvegicus, UniProt P53987)
# T3 sequence (P53987 whole entry): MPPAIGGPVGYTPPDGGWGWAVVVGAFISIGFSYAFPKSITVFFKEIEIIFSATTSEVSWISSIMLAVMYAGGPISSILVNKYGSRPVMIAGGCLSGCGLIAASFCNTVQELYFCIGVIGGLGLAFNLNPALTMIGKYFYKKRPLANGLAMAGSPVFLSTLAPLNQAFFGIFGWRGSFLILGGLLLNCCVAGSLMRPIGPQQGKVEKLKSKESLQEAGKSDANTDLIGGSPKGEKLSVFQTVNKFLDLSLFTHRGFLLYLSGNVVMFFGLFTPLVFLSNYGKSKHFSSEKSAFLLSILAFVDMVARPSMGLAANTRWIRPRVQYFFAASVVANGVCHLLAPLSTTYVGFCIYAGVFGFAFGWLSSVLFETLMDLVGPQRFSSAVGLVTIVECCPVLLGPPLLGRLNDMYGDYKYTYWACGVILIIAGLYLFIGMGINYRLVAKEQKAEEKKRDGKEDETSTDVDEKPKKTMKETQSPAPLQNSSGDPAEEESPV
# [8] = target: T2, Sodium/hydrogen exchanger 1; format: cell-based, Platelet
# Carbonic anhydrase 9 [9] = target: T4, Carbonic anhydrase 9 (Homo sapiens, UniProt Q16790)
# [10] = target: T5, Monocarboxylate transporter 1 (Homo sapiens, UniProt P53985)
# T5 sequence (P53985 whole entry): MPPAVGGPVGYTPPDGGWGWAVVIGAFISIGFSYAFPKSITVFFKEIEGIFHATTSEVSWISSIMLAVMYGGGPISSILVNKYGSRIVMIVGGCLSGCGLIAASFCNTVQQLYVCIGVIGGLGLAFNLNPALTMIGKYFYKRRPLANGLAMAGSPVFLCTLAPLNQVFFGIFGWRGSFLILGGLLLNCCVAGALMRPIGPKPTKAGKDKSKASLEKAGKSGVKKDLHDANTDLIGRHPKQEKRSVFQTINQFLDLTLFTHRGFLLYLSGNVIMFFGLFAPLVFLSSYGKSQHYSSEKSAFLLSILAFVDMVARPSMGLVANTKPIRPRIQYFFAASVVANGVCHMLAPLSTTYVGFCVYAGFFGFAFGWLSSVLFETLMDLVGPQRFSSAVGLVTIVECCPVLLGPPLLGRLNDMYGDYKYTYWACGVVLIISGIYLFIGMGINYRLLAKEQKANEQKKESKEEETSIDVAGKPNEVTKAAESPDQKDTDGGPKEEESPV
# [11] = target: T5, Monocarboxylate transporter 1; remark: listed apart in the source
# [12] = target: T6, Monocarboxylate transporter 4 (Homo sapiens, UniProt O15427)
# T6 sequence (O15427 whole entry): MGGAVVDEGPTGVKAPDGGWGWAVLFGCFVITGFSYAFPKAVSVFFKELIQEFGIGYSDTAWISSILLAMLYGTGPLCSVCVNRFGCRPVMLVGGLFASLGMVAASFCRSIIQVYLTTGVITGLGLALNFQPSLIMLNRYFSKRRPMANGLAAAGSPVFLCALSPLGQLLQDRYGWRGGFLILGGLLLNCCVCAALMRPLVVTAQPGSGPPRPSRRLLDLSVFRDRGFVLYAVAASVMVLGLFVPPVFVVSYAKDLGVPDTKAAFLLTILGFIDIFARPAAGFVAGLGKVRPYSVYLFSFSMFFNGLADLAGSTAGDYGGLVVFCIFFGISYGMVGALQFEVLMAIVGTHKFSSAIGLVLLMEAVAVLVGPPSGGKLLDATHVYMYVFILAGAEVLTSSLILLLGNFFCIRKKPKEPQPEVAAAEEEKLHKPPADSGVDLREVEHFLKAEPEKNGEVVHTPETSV
# Carbonic anhydrase 9 [13] = target: T4, Carbonic anhydrase 9; remark: listed apart in the source
# MCF7 [14] = assay: cells; settings: Homo sapiens, MCF7, 96 h
# Carbonic anhydrase 9 [15] = target: T4, Carbonic anhydrase 9; remark: listed apart in the source
# T2 sequence (P19634 whole entry): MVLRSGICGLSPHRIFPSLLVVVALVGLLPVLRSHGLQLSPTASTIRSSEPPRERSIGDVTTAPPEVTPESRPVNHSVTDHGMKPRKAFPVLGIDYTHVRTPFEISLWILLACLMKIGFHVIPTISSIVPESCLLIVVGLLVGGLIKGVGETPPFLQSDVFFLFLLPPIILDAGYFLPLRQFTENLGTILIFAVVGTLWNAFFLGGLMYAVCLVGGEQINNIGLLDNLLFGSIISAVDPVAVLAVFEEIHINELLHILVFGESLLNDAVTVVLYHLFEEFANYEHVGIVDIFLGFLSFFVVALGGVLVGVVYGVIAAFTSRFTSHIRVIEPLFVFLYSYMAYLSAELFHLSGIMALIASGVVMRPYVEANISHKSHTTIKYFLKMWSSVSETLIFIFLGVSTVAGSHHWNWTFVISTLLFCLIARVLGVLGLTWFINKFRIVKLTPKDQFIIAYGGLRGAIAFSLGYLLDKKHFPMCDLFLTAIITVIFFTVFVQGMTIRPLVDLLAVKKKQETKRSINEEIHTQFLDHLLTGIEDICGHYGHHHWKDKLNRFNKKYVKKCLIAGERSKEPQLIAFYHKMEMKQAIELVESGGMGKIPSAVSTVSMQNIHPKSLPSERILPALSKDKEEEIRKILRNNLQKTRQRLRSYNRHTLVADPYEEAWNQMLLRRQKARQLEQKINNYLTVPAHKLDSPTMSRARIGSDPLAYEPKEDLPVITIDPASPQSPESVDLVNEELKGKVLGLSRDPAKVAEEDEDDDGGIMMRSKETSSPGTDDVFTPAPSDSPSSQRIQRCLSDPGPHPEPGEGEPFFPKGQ
compound,measurement,setting,value
O=C(Oc1ccc2c(-c3ccccc3)cc(=O)oc2c1)c1ccccc1,Ki,Carbonic anhydrase 2 [1],> 10000 nM
CC(C)c1cc(=O)c2c(OCCCO)cc(OCc3cccc4ccccc34)cc2o1,EC50,Raji,≤ 100 nM
N#Cc1cc2ccc(O)cc2oc1=O,Ki,Carbonic anhydrase 2 [1],> 200000 nM
CC(C)c1cc(=O)c2c(OCc3ccccc3CO)cc(OCc3ccnc4ccccc34)cc2o1,EC50,Raji,≤ 100 nM
Cc1nc(C(=O)N=C(N)N)c(N)nc1N1CCCOCC1,IC50,[2],85 nM
NS(=O)(=O)c1ccc(NCC(=O)N/N=C2\C(=O)N(Cc3ccccc3)c3ccccc32)cc1,Ki,Carbonic anhydrase 2 [3],204 nM
Cc1c[nH]c(=O)n(CC(=O)N=C(N)N)c1=O,IC50,[4],155 nM
COc1ccc(CN2CCN(Cc3ccc(C(=O)N=C(N)N)cc3NC(=O)c3ccc(C(F)(F)F)cc3)CC2)c(OC)c1OC,IC50,[4],3530 nM
Nc1nn(C(=O)C23CC4CC(CC(C4)C2)C3)c(N)c1/N=N/c1ccccc1,IC50,HepG2,2700 nM
same,IC50,MCF7 [5],4680 nM
same,Ki,Carbonic anhydrase 2 [6],85.7 nM
same,IC50,A549,1550 nM
CC(C)N1C(=O)C(C)(C)Oc2ccc(C(=O)N=C(N)N)cc21,IC50,[4],120 nM
COc1ccc(CN2CCN(CCOc3ccc(C(=O)N=C(N)N)cc3[N+](=O)[O-])CC2)c(OC)c1OC,IC50,[4],104 nM
CC(C)(C)[Si](CCOc1ccc(/C=C(\C#N)C(=O)O)cc1)(c1ccccc1)c1ccccc1,IC50,[7],97 nM
Cn1c(=O)n(Cc2nnc(N)[nH]2)c(=O)c2ccccc21,IC50,[4],5800 nM
C=CCN1CCN(Cc2c(O)ccc3c(C)cc(=O)oc23)CC1,Ki,Carbonic anhydrase 2 [6],> 10000 nM
CC(C)c1cc(=O)c2c(OCc3ccccc3CO)cc(OCc3ncccc3C(F)(F)F)cc2o1,EC50,Raji,≤ 100 nM
CS(=O)(=O)c1cc(C(=O)N=C(N)N)ccc1N1CCCCC1,IC50,[8],100 nM and 800 nM
CCN(CC)c1ccc(/C=C(\C#N)C(=O)O)cc1,IC50,[7],66 nM
N=C(N)NC(=O)[C@H]1C[C@@H]1c1ccccc1,IC50,[4],500 nM
NC(N)=NC(=O)c1cc2cccc3c2n1C(=O)CCCC3,IC50,[4],6 nM
NC(N)=NC(=O)c1cc(Cl)c(N)cc1N,IC50,[8],16000 nM
Cc1cc(=O)oc2cc(OCCCCCNc3nc4cc(-c5ccccc5)ccc4o3)ccc12,Ki,Carbonic anhydrase 9 [9],32.2 nM
same,Ki,Carbonic anhydrase 2 [1],> 10000 nM
N#C/C(=C\c1c[nH]c2ccccc12)C(=O)O,IC50,[7],> 1000 nM
Cc1cccc2c1cc(C(=O)N=C(N)N)n2C,IC50,[4],100 nM
NC(N)=NC(=O)c1ccc2c(Br)cccc2c1,IC50,[4],10 nM
O=c1c(O)c(-c2ccc(O)cc2O)oc2cc(O)cc(O)c12 [MORIN],IC50,[10],6210 nM
O=C(CCc1ccc(O)cc1)c1c(O)cc(O)cc1O [PHLORETIN],IC50,[10],2570 nM
CC(=O)Nc1cc([N+](=O)[O-])c(Cl)cc1C(=O)N=C(N)N,IC50,[8],3600 nM
Cc1nc2c(cc1C(=O)N=C(N)N)CCCCC2,IC50,[4],17 nM
Cc1ccc(-c2cc(C)c(C(=O)N=C(N)N)cc2S(C)(=O)=O)cc1,IC50,[8],25 nM
Cc1cc(S(C)(=O)=O)c(S(C)(=O)=O)cc1C(=O)NC(=N)N [RIMEPORIDE],IC50,[8],113 nM
COc1ccc(CSc2nnc(COc3ccc4c(C)cc(=O)oc4c3)o2)cc1,Ki,Carbonic anhydrase 2 [1],> 10000 nM
CC(C(=O)NCCOc1ccc2oc(=O)ccc2c1)c1ccc(-c2ccccc2)c(F)c1 (stereo not given),Ki,Carbonic anhydrase 2 [6],> 10000 nM
Cc1nc(-c2cc3ccccc3oc2=O)ccc1C(=O)/C=C/c1ccccc1,Ki,Carbonic anhydrase 2 [1],> 100000 nM
Cc1cc(C(C)C)c(S(C)(=O)=O)cc1C(=O)N=C(N)N,IC50,[8],2 nM
"N=C(N)NC(=O)c1nc(Cl)c(N2CCCCCC2)nc1N [N,N-HEXAMETHYLENEAMILORIDE]",IC50,[8],3300 nM
CC(C)N1C(=O)C(C)(C)Oc2cc(C(=O)N=C(N)N)ccc21,IC50,[4],200 nM
CC(C)c1c(C(=O)Nc2ccccc2)c(-c2ccccc2)c(-c2ccc(F)cc2)n1CC[C@@H](O)C[C@@H](O)CC(=O)O [ATORVASTATIN CALCIUM],IC50,[11],> 210000 nM
same,IC50,[12],~138000 nM
CCCCCOc1ccc(C(=O)CN2CCN(Cc3ccc(OC)c(OC)c3OC)CC2)cc1C(=O)N=C(N)N,IC50,[4],108 nM
Cc1cc(-n2cccc2)c(S(C)(=O)=O)cc1C(=O)NC(=N)N [ENIPORIDE],IC50,[8],80 nM
C=C(C)[C@@H]1CC[C@]2(COS(N)(=O)=O)CC[C@]3(C)[C@H](CC[C@@H]4[C@@]5(C)CC[C@H](OC(=O)NCC)C(C)(C)[C@@H]5CC[C@]43C)[C@@H]12,Ki,Carbonic anhydrase 9 [13],4.46 nM
same,IC50,MCF7 [14],10500 nM
NS(=O)(=O)c1ccc(CN/C=C/C(=O)/C=C/c2cc3ccccc3oc2=O)cc1,Ki,Carbonic anhydrase 9 [15],8.9 nM
same,Ki,Carbonic anhydrase 2 [6],44 nM
Cn1c(C(=O)N=C(N)N)cc2ccccc21,IC50,[4],1000 nM
CC(C)c1ccc(C(=O)NC(=N)N)cc1S(C)(=O)=O [CARIPORIDE],IC50,[8],800 nM and 200 nM
CCN(c1nc(N)c(C(=O)NC(=N)N)nc1Cl)C(C)C [5-(N-ETHYL-N-ISOPROPYL)AMILORIDE],IC50,[8],500 nM
NC(N)=NC(=O)c1nc(Cl)c(N)cc1N,IC50,[8],2300 nM
C=C(C)[C@@H]1CC[C@]2(COS(N)(=O)=O)CC[C@]3(C)[C@H](CC[C@@H]4[C@@]5(C)CC[C@H](OS(N)(=O)=O)C(C)(C)[C@@H]5CC[C@]43C)[C@@H]12,IC50,MCF7 [14],10400 nM
O=c1cc(-c2ccc(O)c(O)c2)oc2cc(O)cc(O)c12 [LUTEOLIN],IC50,[10],410 nM
NC(N)=NC(=O)c1cc(Cl)c(N)nc1N,IC50,[8],1300 nM
Cc1cccc(N2C(=O)CSC2c2cn(-c3ccccc3)nc2-c2cc3ccccc3oc2=O)c1 (stereo not given),Ki,Carbonic anhydrase 9 [15],61.5 nM
same,Ki,Carbonic anhydrase 2 [6],> 10000 nM
CC(C)CN(C)c1nc(N)c(C(=O)N=C(N)N)nc1Cl [5-(N-METHYL-N-ISOBUTYL)AMILORIDE],IC50,[2],174 nM
O=c1ccc2cc(-n3cc(CNc4ccc(Br)cc4)nn3)ccc2o1,Ki,Carbonic anhydrase 2 [1],> 50000 nM
CC(=O)C(C)/C(C)=N/NC(=O)C12CC3CC(CC(C3)C1)C2 (stereo not given),IC50,HepG2,7820 nM
same,IC50,MCF7 [5],8350 nM
same,Ki,Carbonic anhydrase 2 [6],256 nM
same,IC50,A549,4390 nM
COc1ccc(CN2CCN(CCOc3ccc(C(=O)NC(=N)N)cc3NC(=O)c3sccc3C)CC2)c(OC)c1OC,IC50,[4],68 nM
CCOC(=O)N1CCC(=C2c3ccc(Cl)cc3CCc3cccnc32)CC1 [LORATADINE],IC50,[11],~100000 nM
same,IC50,[12],> 300000 nM
CC(=O)c1ccc(-c2cc3ccccc3oc2=O)nc1C,Ki,Carbonic anhydrase 9 [9],625 nM
same,Ki,Carbonic anhydrase 2 [1],> 100000 nM
O=C(CN1C(=O)CSC1=O)c1cc2ccccc2oc1=O,Ki,Carbonic anhydrase 2 [1],> 100000 nM
N#C/C(=C\c1cn(-c2ccccc2C(=O)O)c2ccccc12)C(=O)O,IC50,[7],> 1000 nM
